Measurements published in US10150747B2, “Compounds for the treatment of hepatitis C” (BRISTOL-MYERS SQUIBB COMPANY, priority 2015, dated 2018).

How the values were obtained:
HCV = settings: extended dosing of the combination regimens with interferon and ribavirin; cited from earlier work
[1] = target: HCV NS5B genotype 1b (Con1) (Hepatitis C virus genotype 1b (isolate Con1) (HCV), UniProt Q9WMX2); assay: HCV NS5B RdRp enzyme assay (1b enzyme); format: biochemical; settings: genotype 1b NS5B enzyme
Sequence of HCV NS5B genotype 1b (Con1) (Q9WMX2 2420-2992): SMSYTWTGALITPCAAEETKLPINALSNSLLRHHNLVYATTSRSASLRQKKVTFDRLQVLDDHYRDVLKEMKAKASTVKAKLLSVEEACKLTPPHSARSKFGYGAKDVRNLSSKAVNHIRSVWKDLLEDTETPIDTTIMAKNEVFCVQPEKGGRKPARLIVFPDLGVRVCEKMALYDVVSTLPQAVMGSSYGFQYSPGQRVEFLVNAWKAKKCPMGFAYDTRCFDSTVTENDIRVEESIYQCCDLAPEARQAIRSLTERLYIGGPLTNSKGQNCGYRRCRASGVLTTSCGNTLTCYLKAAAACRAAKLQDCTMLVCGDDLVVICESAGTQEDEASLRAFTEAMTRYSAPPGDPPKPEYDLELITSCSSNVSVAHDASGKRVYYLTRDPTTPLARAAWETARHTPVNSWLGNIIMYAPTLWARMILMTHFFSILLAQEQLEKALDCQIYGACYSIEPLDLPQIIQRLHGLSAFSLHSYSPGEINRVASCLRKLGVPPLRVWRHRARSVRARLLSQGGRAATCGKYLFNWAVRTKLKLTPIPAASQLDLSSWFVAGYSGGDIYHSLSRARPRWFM
Protocol: HCV NS5B RdRp Cloning, Expression, and Purification.
The cDNA encoding NS5B proteins of HCV genotype 1b (Con1), a genotype 1b variant with amino acid 316 mutated from cysteine to asparagine, and genotype 2a (JFH-1), were cloned into the pET21a expression vector. Each untagged protein was expressed with an 18 amino acid C-terminal truncation to enhance the solubility. The E. coli competent cell line BL21(DE3) was used for expression of the protein. Cultures were grown at 37° C. for ˜4 hours until the cultures reached an optical density of 2.0 at 600 nm. The cultures were cooled to 20° C. and induced with 1 mM IPTG. Fresh ampicillin was added to a final concentration of 50 μg/mL and the cells were grown overnight at 20° C.
The lysis buffer consisted of 20 mM Tris-HCl, pH 7.4, 500 mM NaCl, 0.5% triton X-100, 1 mM DTT, 1 mM EDTA, 20% glycerol, 0.5 mg/mL lysozyme, 10 mM MgCl2, 15 ug/mL deoxyribonuclease I, and Complete TM protease inhibitor tablets (Roche). After addition of the lysis buffer, frozen cell pellets were resuspended using a tissue homogenizer. To reduce the viscosity of the sample, aliquots of the lysate were sonicated on ice using a microtip attached to a Branson sonicator. The sonicated lysate was centrifuged at 100,000×g for 30 minutes at 4° C. and filtered through a 0.2 μm filter unit (Corning).
The protein was purified using two sequential chromatography steps: Heparin sepharose CL-6B and polyU sepharose 4B. The chromatography buffers were identical to the lysis buffer but contained no lysozyme, deoxyribonuclease I, MgCl2 or protease inhibitor and the NaCl concentration of the buffer was adjusted according to the requirements for charging the protein onto the column. Each column was eluted with a NaCl gradient which varied in length from 5-50 column volumes depending on the column type. […] The enzyme was aliquoted and stored at −80° C.
HCV NS5B RdRp Enzyme Assay.
An on-bead solid phase homogeneous assay was used in a 384-well format to assess NS5B inhibitors (WangY-K, Rigat K, Roberts S, and Gao M (2006) Anal Biochem, 359: 106-111). The biotinylated oligo dT12 primer was captured on streptavidin-coupled imaging beads (GE, RPNQ0261) by mixing primer and beads in 1× buffer and incubating at room temperature for three hours. Unbound primer was removed after centrifugation. The primer-bound beads were resuspended in 3× reaction mix (20 mM Hepes buffer, pH 7.5, dT primer coupled beads, poly A template, ^3H-UTP, and RNAse inhibitor (Promega N2515)). Compounds were serially diluted 1:3 in DMSO and aliquoted into assay plates. Equal volumes (5 μL) of water, 3× reaction mix, and enzyme in 3× assay buffer (60 mM Hepes buffer, pH 7.5, 7.5 mM MgCl2, 7.5 mM KCl, 3 mM DTT, 0.03 mg/mL BSA, 6% glycerol) were added to the diluted compound on the assay plate. Final concentration of components in 384-well assay: 0.36 nM template, 15 nM primer, 0.29 μM ^3H-UTP (0.3 μCi), 1.6 U/4 RNAse inhibitor, 7 nM NS5B enzyme, 0.01 mg/mL BSA, 1 mM DTT, and 0.33 μg/μL beads, 20 mM Hepes buffer, pH 7.5, 2.5 mM MgCl2, 2.5 mM KCl, and 0.1% DMSO.
Reactions were allowed to proceed for 24 hours at 30° C. and terminated by the addition of 50 mM EDTA (5 μL). After incubating for at least 15 minutes, plates were read on an Amersham LEADseeker multimodality imaging system.
IC50 values for compounds were determined using ten different [I]. IC50 values were calculated from the inhibition using the four-parameter logistic formula y=A+((B−A)/(1+((C/x)^D))), where A and B denote minimal and maximal % inhibition, respectively, C is the IC50, D is hill slope and x represents compound concentration.

[2] = test system: genotype 1b (Con-1) HCV replicon in Huh-7 cells; assay: HCV replicon luciferase assay (1b replicon); format: cell-based; settings: Hepatitis C virus, 72 h; genotype 1b replicon, Huh-7, Renilla luciferase, 3 days incubation; read-out: EC50
Protocol: The cell lines used to evaluate compounds consist of a human hepatocyte derived cell line (Huh-7) that constitutively expresses a genotype 1b (Con-1) HCV replicon or a genotype 1b (Con-1) HCV replicon with an asparagine replacing the cysteine at amino acid 316, or a genotype 2a (JFH-1) replicon, containing a Renilla luciferase reporter gene. These cells were maintained in Dulbecco's modified Eagle medium (DMEM) containing 10% FBS, 100 U/mL penicillin/streptomycin and 1.0 mg/mL G418.
HCV Replicon Luciferase Assay.
After 3 days incubation at 37° C., cells were analyzed for Renilla Luciferase activity using the EnduRen substrate (Promega cat #E6485) according to the manufacturer's directions. Briefly, the EnduRen substrate was diluted in DMEM and then added to the plates to a final concentration of 7.5 μM. The plates were incubated for at least 1 h at 37° C. then read on a Viewlux Imager (PerkinElmer) using a luminescence program.

SMILES | hepatic toxicity (HCV) | IC50 [1] [nM] | EC50 [2] [nM]
CNC(=O)c1c(-c2ccc(F)cc2)oc2cc(N(CCO)S(C)(=O)=O)c(C3CC3)cc12 [HCV-796] | hepatic toxicity |  | 
CNC(=O)c1c(-c2ccc(F)cc2)oc2cc(OCCO)c(-c3ccc(OC)c(C(=O)NC(C)(C)c4ncon4)c3)cc12 [Example 34, 5-(3-((2-(1,2,4-Oxadiazol-3-yl)propan-2-yl)carbamoyl)-4-methoxyphenyl)-2-(4-fluorophenyl)-6-(2-hydroxyethoxy)-N-methylbenzofuran-3-carboxamide] |  | 3.89 | 8.31
CNC(=O)c1c(-c2ccc(F)cc2)oc2cc(OCC(F)(F)F)c(-c3ccc(OC)c(C(=O)NC4(c5ncccn5)CC4)c3)cc12 [Example 2, 2-(4-Fluorophenyl)-5-(4-methoxy-3-((1-(pyrimidin-2-yl)cyclopropyl)carbamoyl)phenyl)-N-methyl-6-(2,2,2-trifluoroethoxy)benzofuran-3-carboxamide] |  | 4.15 | 6.24
CCOc1cc2oc(-c3ccc(F)cc3)c(C(=O)NC)c2cc1-c1cccc(C(=O)NC2(c3ncccn3)CC2)c1 [Example 7, 6-Ethoxy-2-(4-fluorophenyl)-N-methyl-5-(3-((1-(pyrimidin-2-yl)cyclopropyl)carbamoyl)phenyl)benzofuran-3-carboxamide] |  | 5.78 | 10
CCCOc1cc2oc(-c3ccc(F)cc3)c(C(=O)NC)c2cc1-c1ccc(OC)c(C(=O)NC(C)(C)c2ncon2)c1 [Example 25, 5-(3-((2-(1,2,4-oxadiazol-3-yl)propan-2-yl)carbamoyl)-4-methoxyphenyl)-2-(4-fluorophenyl)-N-methyl-6-propoxybenzofuran-3-carboxamide] |  | 2.48 | 6.23
CNC(=O)c1c(-c2ccc(F)cc2)oc2cc(OCC(F)(F)F)c(-c3cccc(C(=O)NC4(c5ncccn5)CC4)c3)cc12 [Example 1, 2-(4-Fluorophenyl)-N-methyl-5-(3-((1-(pyrimidin-2-yl)cyclopropyl)carbamoyl)phenyl)-6-(2,2,2-trifluoroethoxy)benzofuran-3-carboxamide] |  | 7.42 | 10
CNC(=O)c1c(-c2ccc(F)cc2)oc2cc(OCC(F)(F)F)c(-c3ccc(F)c(C(=O)NC45CC(C4)C5)c3)cc12 [Example 4, 5-(3-(Bicyclo[1.1.1]pentan-1-ylcarbamoyl)-4-fluorophenyl)-2-(4-fluorophenyl)-N-methyl-6-(2,2,2-trifluoroethoxy)benzofuran-3-carboxamide] |  | 3.88 | 8.61
CCOc1cc2oc(-c3ccc(F)cc3)c(C(=O)NC)c2cc1-c1cccc(C(=O)NC23CC(C2)C3)c1 [Example 5, 5-(3-(Bicyclo[1.1.1]pentan-1-ylcarbamoyl)phenyl)-6-ethoxy-2-(4-fluorophenyl)-N-methylbenzofuran-3-carboxamide] |  | 4.3 | 6.5
[2H]C([2H])([2H])Oc1ccc(-c2cc3c(C(=O)NC)c(-c4ccc(F)cc4)oc3cc2OCC)cc1C(=O)NC(C)(C)c1ncsn1 [Example 33, 5-(3-((2-(1,2,4-thiadiazol-3-yl)propan-2-yl)carbamoyl)-4-(methoxy-d3)phenyl)-6-ethoxy-2-(4-fluorophenyl)-N-methylbenzofuran-3-carboxamide] |  | 2.04 | 2.49
CNC(=O)c1c(-c2ccc(F)cc2)oc2cc(OCC(F)(F)F)c(-c3cccc(C(=O)NC(C)(C)C#N)c3)cc12 [Example 10, 5-(3-((2-Cyanopropan-2-yl)carbamoyl)phenyl)-2-(4-fluorophenyl)-N-methyl-6-(2,2,2-trifluoroethoxy)benzofuran-3-carboxamide] |  | 3.02 | 5.01
CCOc1cc2oc(-c3ccc(F)cc3)c(C(=O)NC)c2cc1-c1cnc(OC)c(C(=O)NC2(c3ncccn3)CC2)c1 [Example 13, 5-(6-Ethoxy-2-(4-fluorophenyl)-3-(methylcarbamoyl)benzofuran-5-yl)-2-methoxy-N-(1-(pyrimidin-2-yl)cyclopropyl)nicotinamide] |  | 2.72 | 3.67
CNC(=O)c1c(-c2ccc(F)cc2)oc2cc(OCC(F)(F)F)c(-c3cccc(C(=O)NC4(C#N)CC4)c3)cc12 [Example 8, 5-(3-((1-Cyanocyclopropyl)carbamoyl)phenyl)-2-(4-fluorophenyl)-N-methyl-6-(2,2,2-trifluoroethoxy)benzofuran-3-carboxamide] |  | 4.97 | 20
